# According to US9067937B2 (priority 2012, dated 2015):
# Counter-ions that a name gives are not always drawn.
# Assays:
# [1] = tested on: A549 cells; experiment: Cell-based assay, anti-proliferative activity (Cell Counting Kit-8, 72 hours); design: species or system human; conditions: Homo sapiens, A549, 72 h, read-out: IC50 (μM) (A549)
# How it was run: (§1)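 Cells seeded at 2,000–3,000 cells/well and exposed to candidate MELK inhibitors for 72 hours; growth measured with Cell Counting Kit-8. IC50 values calculated from the growth read-out.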
# [2] = tested on: T47D cells; experiment: as above; design: species or system human; conditions: Homo sapiens, T47D, 72 h, read-out: IC50 (μM) (T47D)
# How it was run: as §1
# [3] = tested on: 22Rv1 cells; experiment: as above; design: species or system human; conditions: Homo sapiens, 22Rv1, 72 h, read-out: IC50 (μM) (22Rvl)
# How it was run: as §1
# [4] = tested on: DU4475 cells; experiment: as above; design: species or system human; conditions: Homo sapiens, DU-4475, 72 h, read-out: IC50 (μM) (DU4475)
# How it was run: as §1
# [5] = tested on: HT1197 cells; experiment: Cell-based assay, anti-proliferative activity, MELK-negative control (Cell Counting Kit-8, 72 hours); design: species or system human; conditions: Homo sapiens, HT1197, 72 h, read-out: IC50 (μM) (HTll97)
# Procedure: 100 micro-L of cell suspension was seeded onto 96-well microtiter plate (ViewPlate-96FTC, PerkinElmer). The initial cell concentration of 22Rv1, T47D, A549, DU4475, and HT1197 were 3,000 cells/well, 2,000 cells/well and 2,500 cells/well, respectively. Cellular growth was determined using Cell Counting Kit-8 (DOJINDO) at 72 hours after the exposure of the candidate inhibitors. […] Accurate IC50 values were calculated as described previously.
# [6] = molecular target: MELK (Homo sapiens, UniProt Q14680); experiment: Kinase assay (IMAP fluorescence polarization, FITC-labeled histone H3 peptide); type: biochemical; conditions: 50 micro-M ATP
# Chain of MELK (Q14680 whole entry, looked up): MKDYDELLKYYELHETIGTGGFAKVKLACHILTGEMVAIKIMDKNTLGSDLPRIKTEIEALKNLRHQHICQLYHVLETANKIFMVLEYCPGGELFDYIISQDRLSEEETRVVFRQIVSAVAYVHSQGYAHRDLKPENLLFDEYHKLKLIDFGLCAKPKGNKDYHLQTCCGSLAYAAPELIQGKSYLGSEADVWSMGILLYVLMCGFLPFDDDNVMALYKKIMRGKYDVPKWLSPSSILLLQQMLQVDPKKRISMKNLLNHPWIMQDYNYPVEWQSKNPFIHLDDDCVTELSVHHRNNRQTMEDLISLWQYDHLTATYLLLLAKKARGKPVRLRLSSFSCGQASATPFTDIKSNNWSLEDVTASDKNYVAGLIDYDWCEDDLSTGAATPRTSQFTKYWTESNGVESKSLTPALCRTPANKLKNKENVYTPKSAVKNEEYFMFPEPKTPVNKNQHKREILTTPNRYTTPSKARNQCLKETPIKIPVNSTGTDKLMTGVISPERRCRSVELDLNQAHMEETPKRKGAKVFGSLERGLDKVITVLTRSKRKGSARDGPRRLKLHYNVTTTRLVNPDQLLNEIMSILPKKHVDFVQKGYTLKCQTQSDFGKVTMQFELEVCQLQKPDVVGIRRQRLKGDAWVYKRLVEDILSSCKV
# How it was run: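 Kinase (0.8 ng/μL) reacted with 100 nM FITC-histone H3 peptide and 50 μM ATP in 20 mM HEPES, 0.3 mM MgCl2, 2 mM DTT, 0.01% Tween-20, pH 7.4, for 1 hour at room temperature. Phosphorylation read by IMAP fluorescence polarization after adding binding solution; IC50 from four-parameter fit.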
SMILES,IC50 [1],IC50 [2],IC50 [3],IC50 [4],IC50 [5],IC50 [6]
"N[C@H]1CCCN(c2ccc(Nc3c(C(=O)C4CC4)cnc4ccc(-c5cc(F)c(O)c(Cl)c5)nc34)cn2)C1 [Example 83, (S)-{4-[6-(3-Aminopiperidin-1-yl)pyridin-3-ylamino]-6-(3-chloro-5-fluoro-4-hydroxyphenyl)-1,5-naphthyridin-3-yl}(cyclopropyl)methanone]",0.09 µM,0.012 µM,0.025 µM,0.015 µM,2.7 µM,0.001 µM
"COc1ccc(-c2ccc3ncc(C(C)=O)c(N[C@H]4CC[C@H](CN(C)C)CC4)c3n2)cc1 [Example 84, 1-(4-{trans-4-[(Dimethylamino)methyl]cyclohexylamino}-6-(4-methoxyphenyl)-1,5-naphthyridin-3-yl)ethanone dihydrochloride]",2.4 µM,0.25 µM,0.58 µM,5.2 µM,6 µM,0.031 µM
"COc1c(Cl)cc(-c2ccc3ncc(C(C)=O)c(N[C@H]4CC[C@H](CN(C)C)CC4)c3n2)cc1Cl [Example 85, 1-[6-(3,5-Dichloro-4-methoxyphenyl)-4-{trans-4-[(dimethylamino)methyl]-cyclohexylamino}-1,5-naphthyridin-3-yl]ethanone dihydrochloride]",2.3 µM,0.43 µM,0.77 µM,2.3 µM,6.5 µM,0.12 µM
"CC(=O)c1cnc2ccc(-c3ccc(O)nc3)nc2c1N[C@H]1CC[C@H](CN(C)C)CC1 [Example 86, 1-(4-{trans-4-[(Dimethylamino)methyl]cyclohexylamino}-6-(6-hydroxypyridin-3-yl)-1,5-naphthyridin-3-yl)ethanone dihydrochloride]",8 µM,6.2 µM,5.3 µM,6.5 µM,10 µM,0.011 µM
"CC(=O)c1cnc2ccc(-c3ccc(C#N)nc3)nc2c1N[C@H]1CC[C@H](CN(C)C)CC1 [Example 87, 5-(7-Acetyl-8-{trans-4-[(dimethylamino)methyl]cyclohexylamino}-1,5-naphthyridin-2-yl)picolinonitrile dihydrochloride]",1.8 µM,0.66 µM,0.66 µM,0.74 µM,2 µM,0.0045 µM
"CC(=O)c1cnc2ccc(-c3ccc(O)cc3)nc2c1N[C@H]1CC[C@H](CN(C)C)CC1 [Example 88, 1-(4-{trans-4-[(Dimethylamino)methyl]cyclohexylamino}-6-(4-hydroxyphenyl)-1,5-naphthyridin-3-yl)ethanone dihydrochloride]",0.023 µM,0.031 µM,0.04 µM,0.021 µM,0.039 µM,0.0045 µM
"CC(=O)c1cnc2ccc(-c3cc(F)c(O)c(Cl)c3)nc2c1NC[C@H]1CC[C@H](N(C)C)CC1 [Example 90, 1-[6-(3-Chloro-5-fluoro-4-hydroxyphenyl)-4-{[trans-4-(dimethylamino)-cyclohexyl]methylamino}-1,5-naphthyridin-3-yl]ethanone dihydrochloride]",0.12 µM,0.03 µM,0.052 µM,0.027 µM,10 µM,0.0024 µM
"CC(=O)c1cnc2ccc(-c3cc(F)c(O)c(Cl)c3)nc2c1N[C@H]1CC[C@@H](CN(C)C)CC1 [Example 93, 1-{6-(3-Chloro-5-fluoro-4-hydroxyphenyl)-4-({cis-4-[(dimethylamino)methyl]cyclohexyl}-amino)-1,5-naphthyridin-3-yl}ethanone dihydrochloride]",0.039 µM,0.02 µM,0.032 µM,0.011 µM,0.19 µM,0.0011 µM
"CC(=O)c1cnc2ccc(-c3cc(Cl)c(O)c(Cl)c3)nc2c1Nc1ccc(N2CCC[C@@H](N)C2)nc1 [Example 95, (R)-1-{4-[6-(3-Aminopiperidin-1-yl)pyridin-3-ylamino]-6-(3,5-dichloro-4-hydroxyphenyl)-1,5-naphthyridin-3-yl}ethanone trihydrochloride]",0.088 µM,0.022 µM,0.029 µM,0.03 µM,1.9 µM,0.002 µM
"CC(=O)c1cnc2ccc(-c3cc(F)c(O)c(Cl)c3)nc2c1Nc1ccc(N2CCC[C@@H](N)C2)nc1 [Example 96, (R)-1-{4-[6-(3-Aminopiperidin-1-yl)pyridin-3-ylamino]-6-(3-chloro-5-fluoro-4-hydroxyphenyl)-1,5-naphthyridin-3-yl}ethanone]",0.035 µM,0.018 µM,0.026 µM,0.024 µM,0.43 µM,0.0036 µM
"N[C@@H]1CCCN(c2ccc(Nc3c(C(=O)C4CC4)cnc4ccc(-c5cc(Cl)c(O)c(Cl)c5)nc34)cn2)C1 [Example 201, (R)-(4-{[6-(3-aminopiperidin-1-yl)pyridin-3-yl]amino}-6-(3,5-dichloro-4-hydroxyphenyl)-1,5-naphthyridin-3-yl) (cyclopropyl)methanone]",0.0061 µM,0.0025 µM,0.0061 µM,0.003 µM,0.032 µM,0.00093 µM
"N[C@@H]1CCCN(c2ccc(Nc3c(C(=O)C4CC4)cnc4ccc(-c5cc(F)c(O)c(Cl)c5)nc34)cn2)C1 [Example 202, (R)-(4-{[6-(3-aminopiperidin-1-yl)pyridin-3-yl]amino}-6-(3-chloro-5-fluoro-4-hydroxyphenyl)-1,5-naphthyridin-3-yl) (cyclopropyl) methanone]",0.0054 µM,0.0038 µM,0.0044 µM,0.001 µM,0.047 µM,0.00046 µM
"CN(C)[C@H]1CC[C@H](Nc2c(C(=O)CO)cnc3ccc(-c4cc(Cl)c(O)c(Cl)c4)nc23)CC1 [Example 203, 1[6-(3,5-dichloro-4-hydroxyphenyl)-4-{[trans-4-(dimethylamino)cyclohexyl]amino}-1,5-naphthyridin-3-yl)-2-hydroxyethanone dihydrochloride]",0.034 µM,0.0093 µM,0.017 µM,0.013 µM,1.2 µM,0.0015 µM
"CN(C)C[C@H]1CC[C@H](Nc2c(C(=O)CO)cnc3ccc(-c4cc(F)c(O)c(Cl)c4)nc23)CC1 [Example 204, 1-[6-(3-chloro-5-fluoro-4-hydroxyphenyl)-4-({trans-4-[(dimethylamino)methyl]cyclohexyl}amino)-1,5-naphthyridin-3-yl)]-2-hydroxyethanone dihydrochloride]",0.058 µM,0.014 µM,0.02 µM,0.013 µM,10 µM,0.0013 µM
"CCC(=O)c1cnc2ccc(-c3cc(F)c(O)c(Cl)c3)nc2c1N[C@H]1CC[C@H](CN(C)C)CC1 [Example 205, 1-[6-(3-chloro-5-fluoro-4-hydroxyphenyl)-4-({trans-4-[(dimethylamino)methyl]cyclohexyl}amino)-1,5-naphthyridin-3-yl)]propan-1-one dihydrochloride]",0.032 µM,0.0083 µM,0.022 µM,0.033 µM,0.69 µM,0.0028 µM
"CCC(=O)c1cnc2ccc(-c3cc(Cl)c(O)c(Cl)c3)nc2c1N[C@H]1CC[C@H](CN(C)C)CC1 [Example 206, 1-[6-(3,5-dichloro-4-hydroxyphenyl)-4-({trans-4-[(dimethylamino)methyl]cyclohexyl}amino)-1,5-naphthyridin-3-yl)]propan-1-one dihydrochloride]",0.061 µM,0.01 µM,0.022 µM,0.023 µM,10 µM,0.0013 µM
"CCC(=O)c1cnc2ccc(-c3cc(Cl)c(O)c(Cl)c3)nc2c1Nc1ccc(N2CCC[C@H](N)C2)nc1 [Example 207, (S)-1-(4-{[6-(3-aminopiperidin-1-yl)pyridin-3-yl]amino}-6-(3,5-dichloro-4-hydroxyphenyl)-1,5-naphthyridin-3-yl)propan-1-one trihydrochloride]",0.098 µM,0.018 µM,0.034 µM,0.024 µM,3.9 µM,0.0016 µM
"CCC(=O)c1cnc2ccc(-c3cc(F)c(O)c(Cl)c3)nc2c1Nc1ccc(N2CCC[C@H](N)C2)nc1 [Example 208, (S)-1-(4{[6-(3-aminopiperidin-1-yl)pyridin-3-yl]amino}-6-(3-chloro-5-fluoro-4-hydroxyphenyl)-1,5-naphthyridin-3-yl)propan-1-one trihydrochloride]",0.063 µM,0.015 µM,0.026 µM,0.021 µM,0.86 µM,0.0026 µM
